Assay results from patent US4051252A, “3-Aminoindazole-1 and 2-carboxylic acid derivatives” (Bayer Aktiengesellschaft, priority 1974, dated 1977).

Key:
[1] = Acute Toxicity (oral, mouse); conditions: in vivo
Description: The pharmacological properties can be conveniently observed in recognized in vivo models.

[2] = tested on: paw of rats; experiment: Carrageenin Anti-inflammatory Test (carrageenin edema on the paw of rats); format: in vivo, rat; conditions: one hour before carrageenin, measured 2 1/2 and 3 hours after carrageenin; for ED50: Rattus norvegicus, po
Method: The anti-inflammatory (antiphlogistic and anti-edematous) action of the compounds can be conveniently observed by the inhibition of carrageenin edema on the paw of rats. In this test, a reference measurement on the normal paws of rats is carried out half an hour before and half an hour after oral administration of the test compound, using an antiphlogmeter. One hour after administration of the substance, the edema is started by injecting a carrageenin solution into the planta pedis of one hind paw at 21/2 hours and 3 hours after the carrageenin injection, the effect on the edematous paw is measured. The relative paw volume is expressed as a percentage of the reference measurement (=100%). The ED50 is the dose at which, in 50% of the animals employed per dose, the difference between the relative paw volume of the treated animals and the relative paw volume of the 10 control groups is 100.

[3] = tested on: rats; experiment: Yeast Antipyretic Test; format: in vivo, rat; conditions: oral, raised body temperature lowered by 1° C in 50% of animals
Method: Antipyretic action can be observed in rats to which a beer yeast suspension has been administered subcutaneously. The body temperature is measured rectally before and 16 hours after administration of the beer years. The substance to be tested is administered orally to groups of 5 rats in which the body temperature has risen by at least 1° C. Thereafter, the temperature drop is measured rectally with a drop in the body temperature of at least 1° C being assessed as an antipyretic effet. The Ed50 is the dose at which, in 50% of the animals employed, the raised body temperature is lowered by 1° C upon administration of the active substance according to the invention.

[4] = tested on: rats; experiment: Phenylquinone Writhing Test (analgesic activity); format: in vivo; conditions: Rattus norvegicus, oral, 60 minutes before phenylquinone i.p., writhing reduced to half of control
Method: Analgesic activity can also be observed in the phenylquinone writhing test in which 100 μg of phenylquinone, dissolved in 0.5 ml of 5% strength alcohol, are injected intraperitoneally into rats. A few minutes after administration, the animals show the characteristic writhing reaction, which consists of the animals showing extreme backward extension of the hind paws, flexing the back and lifting the tail. At the same time, wave-like contractions frequently pass over the abdominal muscles. The inhibition of this writhing syndrome is assessed to be an analgesic effect. The substance to be investigated is administered 30 minutes (in the case of subcutaneous administration) or 60 minutes (in the case of oral administration) before the injection of phenylquinone. Five animals are employed per compound and per dose. The ED50 is the dose at which the number of writhing reactions in the animals employed is on average reduced to half that of the control group [see generally: Siegmung et al., Proc. Soc. exp. Biol. Med. 95, 729-731 (1957)].

[5] = tested on: tails of rats; experiment: Tail Flick Test (analgesic action); format: in vivo; conditions: Rattus norvegicus; oral, male rats; reaction time of 50% of animals lengthened to at least 20 seconds
Description: Analgesic action can be observed in the tail flick test on the tails of rats in which the tail of male rats is irradiated with a focused heat ray. In this test, untreated animals react after an average irradiation time of 5.1±0.8 seconds (reaction time) by drawing away the tail. Under the influence of analgesically active compounds, this reaction time becomes longer. Active compounds which after administration prolong the reaction time of the animals to at least 20 seconds are considered to be analgesically active. Five animals are employed per dose. The ED50 is the dose which on average lengthens the reaction time of 50% of the animals employed to at least 20 seconds [see generally Wolff et al., J. Clin. Invest., 19, 659-680 (1940)].

CCOC(=O)n1nc(N)c2ccccc21 [3-aminoindazole-1-carboxylic acid ethyl ester]
LD50 [1]: ~3000 mg/kg
ED50 [2]: ~47 mg/kg

CCOC(=O)n1nc(N(C)C)c2ccc(Cl)cc21 [3-dimethylamino-6-chloroindazole-1-carboxylic acid ethyl ester]
LD50 [1]: > 5000 mg/kg
ED50 [3]: 5.2 mg/kg
ED50 [4]: 17 mg/kg

CCNC(=O)n1nc(N)c2cc(C(F)(F)F)ccc21 [3-amino-5-trifluoromethylindazole-1-carboxylic acid ethylamide]
LD50 [1]: > 1000 mg/kg
ED50 [5]: 53 mg/kg
ED50 [3]: 51 mg/kg

COC(=O)n1nc(N)c2ccc(Cl)cc21 [3-amino-6-chloroindazole-1-carboxylic acid methyl ester]
LD50 [1]: > 1000 mg/kg
ED50 [5]: 30 mg/kg
ED50 [2]: ~40 mg/kg
ED50 [3]: ~20 mg/kg
ED50 [4]: ~10 mg/kg

Nc1n[nH]c2ccc(C(F)(F)F)cc12 [3-amino-5-trifluoromethylindazole, reference compound]
LD50 [1]: 228 mg/kg
ED50 [5]: 67 mg/kg
ED50 [3]: 48 mg/kg
ED50 [4]: 61 mg/kg

CN(C)C(=O)n1nc(NC=O)c2ccc(C(F)(F)F)cc21 [3-formylamino-6-trifluoromethyl-1-carboxylic acid dimethylamide]
ED50 (oral), Carrageenin Anti-inflammatory Test [2]: 92 (44-216) mg/kg

CN(C)C(=O)n1nc(NC=O)c2cc(C(F)(F)F)ccc21 [3formylamino-5-trifluoromethylindazole-1-carboxylic acid dimethylamide]
LD50 [1]: > 1000 mg/kg
ED50 [3]: 14 mg/kg

COC(=O)n1nc(N)c2cc(C(F)(F)F)ccc21 [3-amino-5-trifluoromethylindazole-1-carboxylic acid methyl ester]
ED50 [5]: 41 mg/kg
ED50 [3]: ~50 mg/kg

CN(C)C(=O)n1nc(N)c2ccc(Cl)cc21 [3-amino-6-chloroindazole-1-carboxylic acid-dimethylamide]
LD50 [1]: > 1000 mg/kg
ED50 [3]: 41 mg/kg

CCOC(=O)n1nc(N)c2cc(C(F)(F)F)ccc21 [3-amino-5-trifluoromethylindazole-1-carboxylic acid ethyl ester]
LD50 [1]: > 5000 mg/kg
ED50 [4]: 1 mg/kg

CCOC(=O)n1nc(N)c2ccc(Cl)cc21 [3-amino-6-chloroindazole-1-carboxylic acid ethyl ester]
LD50 [1]: ~2000 mg/kg
ED50 [2]: ~77 mg/kg
ED50 (oral), Carrageenin Anti-inflammatory Test [2]: 68 (44-138) mg/kg

CN(C)C(=O)n1nc2cc(Cl)ccc2c1N [3-amino-6-chloroindazole-2-carboxylic acid dimethylamide]
ED50 [3]: 23 mg/kg
ED50 [4]: 17 mg/kg

CCCCOC(=O)n1nc(N)c2ccc(Cl)cc21 [3-amino-6-chloroindazole-1-carboxylic acid n-butyl ester]
LD50 [1]: > 1000 mg/kg
ED50 [2]: 67 mg/kg

CCOC(=O)n1nc(N)c2ccc(C(F)(F)F)cc21 [3-amino-6-trifluoromethylindazole-1-carboxylic acid ethyl ester]
ED50 [5]: 53 mg/kg
ED50 [3]: ~50 mg/kg
